Consider four molecules from patent US9718879B2, “Methods of treating pain by inhibition of VGF activity” (IMPERIAL INNOVATIONS LTD., priority 2012, dated 2017).

Entries after “also recorded” stand apart in the source; their conditions may differ. No end group written: not given here.

For assay [1], the system named is pain behaviour. As to conditions: in vivo; cited from earlier work.
Assay [2] has as its system ipsilateral hind limb mechanical sensitivity. The experiment in a line: Intraplantar injection of LQEQ-19, sensitivity to mechanical stimuli. The assay is classed as in vivo, rat. The settings on record: 275 microgram. An excerpt:
(§1) On the other hand, another VGF-derived peptide LQEQ-19 seems to have a direct role on DRG neurons. […] In summary, there are at least three active VGF peptides involved in pain pathways, i.e., TLQP-62, TLQP-21 and LQEQ-19, and four types of cells, namely, spinal microglia, macrophage, nociceptive DRG neurons, and dorsal horn neurons, which respond to these peptides. In this project we will focus on the putative role of VGF peptides in regulating the activity/excitability of DRG neurons and the novel VGF-induced signaling pathway in microglia/macrophage.

For assay [3], the system named is nociceptors (C-fibre component of compound action potentials in dorsal roots). As to the kind of experiment: Compound action potential recordings in dorsal roots after application to DRG. As to conditions: application of LQEQ-19 to DRG, in vitro.
Text: (A) Typical average trace of 12 compound action potential recordings. The record was divided into 3 components according to the conduction velocities of Aβ fibres (6.2 m/s-2.1 m/s), Ad fibres (2.1 m/s-0.8 m/s) and C fibres (0.8 m/s-0.1 m/s) fibres. (B) Maximum amplitudes of Aβ, Ad and C components of compound action potentials. (C) Area under the curve of Aβ, Ad and C compound action potential. Bold line on the X axis indicates LQEQ-19 application
as §1

For assay [4], the system named is p38 MAP kinase in spinal microglia. As to conditions: mice injected intrathecally; cited from earlier work.
Assay [5] has as its system p38 MAP kinase in spinal microglia and BV-2 microglial cell line. As to conditions: cited from earlier work.
Assay [6] concerns cultured bone marrow-derived macrophages. The experiment in a line: TLQP-21-elicited intracellular Ca2+ increase in cultured macrophages (Fluo-4). Format: cell-based. As to conditions: for increase in intracellular Ca2+ levels: 100 nM peptide, cultured macrophages, Fluo-4. As for the experimental part: (§2) Cell images show the Fluo-4 fluorescence associated with different time points during the recording.
(§3) A possible explanation for the absence of a Ca2+ response from a second application of TLQP-21 is that there is a biological de-sensitisation occurring such as phosphorylation of the receptor. It is also possible that this could be due to depletion of Ca2+ in internal stores such as ER, however, this is less likely because the de-sensitisation occurs even with sufficient time (2 hours) to recover and replenish the Ca2+, and ATP treatment gave an increase in intracellular Ca2+ levels. Actually this de-sensitisation by TLQP-21 has also been observed in cerebellar granule cells.
These peptides were either commercially sourced or provided by Neusentis/Pfizer. The effects of VGF peptides on sensory neurons was analysed using whole-cell current-clamp recordings on cultured DRG neurons. Responses of cells to depolarising current pulses will be analysed before and after superfusion of peptides and their efficacy and potency established. The nociceptive phenotype of the cells was confirmed by superfusing capsaicin to the cells at the end of the recordings, and analysing the action potential and current threshold of the cells. Based on our pilot data with LQEQ-19, we expected that some of these peptides will increase the activity of nociceptive neurons. The activation of microglia and macrophage was studied on two parameters, intracellular Ca^2+ increase and P38 MAP kinase phosphorylation. The phosphorylation levels of P38 MAP kinase was investigated as shown before^20. Once we identified peptides capable of activating sensory neurons and/or microglia/macrophage, confirmed the specific effects using scrambled peptides.

For assay [7], the target named is T1, gC1qR (Rattus norvegicus, UniProt O35796).
T1 construct: from tissue; host or cells: membrane fractions of rat brain (P4) and of 6 weeks old rat brain and spinal cord
T1 sequence (O35796 72-279): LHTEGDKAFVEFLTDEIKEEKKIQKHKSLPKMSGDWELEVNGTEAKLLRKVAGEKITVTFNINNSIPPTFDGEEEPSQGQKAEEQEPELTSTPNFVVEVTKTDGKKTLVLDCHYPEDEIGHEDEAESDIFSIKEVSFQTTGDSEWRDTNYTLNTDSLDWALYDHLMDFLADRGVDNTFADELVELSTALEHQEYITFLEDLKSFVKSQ
The experiment in a line: Receptor identification by chemical cross-linking / monomeric avidin column and LC-MS/MS. Format: binding. The settings on record: rat brain / spinal cord membrane fractions; ~30 kDa band identified by LC-MS/MS. As for the experimental part:
FIG. 3A-F gC1qR is the receptor for TLQP-21. a, Biotinylated TLQP-21 was conjugated to Sulfo-EMCS cross-linker, and applied to membrane fractions of 6 weeks old rat brain and spinal cord for cross-linking (boric acid buffer, pH 8, with 150 mM NaCl, 3 hours incubation on ice). The reaction was terminated using 50 mM Tris buffer, and samples were ethanol precipitated and resolved using Tricine-PAGE and visualised by Western blot analysis by streptavidin-horse radish peroxidase. […] C, The ˜30 kDa band was analysed by LC-MS/MS Orbitrap following trypsinisation.
Ccl11 has been linked to inflammation^23, while Cxcl9 is known as a natural antagonist to Ccl11 receptor CCR3^24. […] The membrane fractions of rat brain was incubated with the crosslinker-conjugated TLQP-21, and analysed by Tricine-PAGE and Western blotting using Streptavidin-HRP for the biotin tag on TLQP-21. […] The membrane fraction of rat brain was applied to a TLQP-21 attached column, and the elutions were analysed on SDS-PAGE and silver staining for direct comparison to the negative control (without TLQP-21). […] The ˜30 kDa bands from both gels were cut out, trypsinised and analysed using LC-MS/MS Orbitrap. […]
To elucidate the identity of the ˜30 kDa protein, which were apparent in two different experiments, the protein band from the monomeric avidin experiment was analysed using LC-MS/MS Orbitrap. […]

Assay [8] has as its system chemokines Ccl11 and Cxcl9 in microglia. As to the kind of experiment: PCR array of chemokine expression in microglia upon TLQP-21 stimulation. Format: cell-based.
The subject of assay [9] is paw withdrawal threshold. As to the kind of experiment: Intraplantar (hind paw) injection of peptide-treated macrophages, Von Frey paw withdrawal threshold. The assay is classed as in vivo, rat. As for the experimental part:
FIG. 6A-C Intraplantar injection of macrophages stimulated with TLQP-21 can evoke mechanical hypersensitivity, and anti-gC1qR antibody reverses mechanical hypersensitivity in partial sciatic nerve ligation (PSNL) model. a, 80,000 macrophages treated with 100 nM TLQP-21 (closed circle) and scrambled TLQP-21 (open circle) for 24 hours have been intraplantarly injected into 3 weeks old male rats. Mechanical sensitivity was examined by electrical Von Frey test. […] C, Time course of paw withdrawal thresholds to Von Frey mechanical stimulation on an left hind paw of PSNL model rats. The left sciatic nerve was exposed, tied with non-absorbable silk thread, and wrapped loosely with a oxidized regenerated cellulose previously soaked in 200 μl of PBS (open triangle) or PBS containing 25 μg of anti-gC1qR (closed circle) or control antibodies (open circle). […] Mean±s.e.m. *P<0.05 vs controls.
Macrophages were treated with either 100 nM TLQP-21 or 100 nM scrambled TLQP-21 for 24 hours in culture. Following wash with PBS, macrophages (35,000 cells in 50 μl) were injected into the left hind paw. Ipsilateral paw withdrawal latency to Von Frey mechanical stimulation was measured at 1, 2, and 3 days after injection (n=9).
We hypothesised that macrophages stimulated by TLQP-21 affects sensory neurons and alter the mechanical sensitivity. We tested this hypothesis by measuring paw withdrawal thresholds in normal rats after hind paw injection of cultured macrophages that had been pre-treated with either TLQP-21 or ScrTLQP-21 for 24 hours. […] This effect lasted for 48 hours after injection. […] We then examined if in vivo application of the neutralising gC1qR antibody can prevent or delay development of neuropathic pain in PSNL model rats. The gC1qR antibody was applied to the site next to nerve ligation, in a cellulose membrane soaked form.

Assay [10] relates to cultured brain microglia. The experiment in a line: Intracellular Ca2+ increase in cultured brain microglia. Format: cell-based, rat. As to conditions: 100 nM. As for the experimental part:
as §2, §3
Ccl11 has been linked to inflammation^23, while Cxcl9 is known as a natural antagonist to Ccl11 receptor CCR3^24. We then used Sulfo-EMCS-conjugated TLQP-21 to purify and identify receptor(s) for TLQP-21. […] The membrane fractions of rat brain was incubated with the crosslinker-conjugated TLQP-21, and analysed by Tricine-PAGE and Western blotting using Streptavidin-HRP for the biotin tag on TLQP-21. […] The membrane fraction of rat brain was applied to a TLQP-21 attached column, and the elutions were analysed on SDS-PAGE and silver staining for direct comparison to the negative control (without TLQP-21). […] The ˜30 kDa bands from both gels were cut out, trypsinised and analysed using LC-MS/MS Orbitrap.

For assay [11], the system named is spinal cord slices. The settings on record: cited from earlier work.
For assay [12], the system named is mechanical and cold sensitivity. As to conditions: intrathecal application to rats; cited from earlier work.
Assay [13] concerns hippocampal neurons. As to conditions: cited from earlier work.

For the molecule “LQEQEELENYIEHVLLHRP [VGF-derived peptide]”, in [1], the “pain behaviour in the formalin test” value was “enhances pain behaviour”. Besides, in [2], the “time of development of hypersensitivity after injection” value amounted to 10 min. The “hypersensitivity to mechanical stimuli” value in assay [2] (ipsilateral hind limb, p≦0.001 vs vehicle) is “associated with a hypersensitivity to mechanical stimuli; also recorded: causes a mechanical hypersensitivity in vivo”. For the same molecule, the “C-fibre component of compound action potentials (amplitude, area under the curve); sensitisation of nociceptors” value in assay [3] is “sensitises nociceptors in vitro; also recorded: significantly increases both the amplitude and the area under the curve”. The “phosphorylated p38 MAP kinase in spinal microglia” value in assay [4] was “increase of phosphorylated p38 MAP kinase”. Besides, in [5], the “p38 MAP kinase phosphorylation” value was “causes P38 MAP kinase phosphorylation; also recorded: induces p38 MAP kinase phosphorylation”.
With “Thr-Leu-Gln-Pro-Pro-Ala-Ser-Ser-Arg-Arg-Arg-His-Phe-His-His-Ala-Leu-Pro-Pro-Ala-Arg [TLQP-21]”, the “de-sensitisation to subsequent TLQP-21 stimulation” value in assay [6] (100 nM TLQP-21, macrophages, ATP response not desensitised) is on record as “densensitises macrophage to further TLQP-21 stimulation; also recorded: induced de-sensitisation to subsequent TLQP-21 treatments”. Further, the “increase in intracellular Ca2+ levels” value in [6] is reported as “elicits an increase in intracellular Ca2+ levels; also recorded: drives an increase in intracellular Ca2+; also recorded: causes intracellular Ca^2+ increase; also recorded: caused transient increase in intracellular Ca2+ levels”. For the same molecule, the “intracellular Ca2+ increase when extracellular Ca2+ is depleted” value in assay [6] (macrophages, extracellular Ca2+ depleted) is given as “still observed”. The “binding to the receptor gC1qR” value in assay [7] was “co-purified with TLQP-21; also recorded: binds to the receptor gC1qR”. In assay [8], this molecule gave a Ccl11 upregulated of 2.78 fold and a Cxcl9 downregulated of 2.28 fold. Further, in assay [9] (injection of macrophages stimulated by TLQP-21), the “duration of the effect on paw withdrawal threshold after injection” value is 48 h. For the same molecule, the tactile allodynia entry in [9] (macrophages treated with 100 nM peptide 24 hours, 35,000 cells in 50 μl into left hind paw, 1, 2, 3 days, n=9) was “produced tactile allodynia”. In addition, the paw withdrawal threshold result in assay [9] (macrophages treated with 100 nM peptide for 24 hours, 80,000 cells injected intraplantarly, Von Frey) is “caused reduction of paw withdrawal thresholds at 24 and 48 hours after injection; also recorded: decreased markedly”. In addition, the “increase in intracellular Ca2+” value in assay [10] is reported as “causes an increase in intracellular Ca2+; also recorded: responded to TLQP-21 similarly to macrophages”.
As to “cross-linker-conjugated TLQP-21: TLQP-21 with N-terminal biotin and extra C-terminal cysteine, conjugated to Sulfo-EMCS cross-linker (TLQPPASSRRRHFHHALPPARC; cyclised or stapled)”, the “increase in intracellular Ca2+ levels” value in assay [6] is given as “able to induce an increase in intracellular Ca2+ levels similar to the wild type TLQP-21”.

B1: Thr-Leu-Gln-Pro-Pro-Ala-Ser-Ser-Arg-Arg-Arg-His-Phe-His-His-Ala-Leu-Pro-Pro-Ala-Arg-His-His-Pro-Asp-Leu-Glu-Ala-Gln-Ala-Arg-Arg-Ala-Gln-Glu-Glu-Ala-Asp-Ala-Glu-Glu-Arg-Arg-Leu-Gln-Glu-Gln-Glu-Glu-Leu- … (peptide)
chain: TLQPPASSRRRHFHHALPPARHHPDLEAQARRAQEEADAEERRLQEQEELENYIEHVLLHRP
modifications: TLQP-62 peptide from VGF
notes: VGF-derived peptide
Consider B1, for which the “frequency of spontaneous excitatory post synaptic currents” value in assay [11] is “increase in the frequency of spontaneous excitatory post synaptic currents”. In addition, in assay [12], the “pain behaviour (mechanical and cold allodynia)” value is “induces pain behaviour (cold and mechanical hypersensitivity); also recorded: long-lasting mechanical and cold behavioural allodynia”. Moreover, the synaptic activity result in assay [13] is recorded as “increase synaptic activity”.
